Experiments:
[1] = system: 5-HT1B; conditions: cited from earlier work
[2] = system: 5-HT1D; conditions: cited from earlier work
[3] = molecular target: T1, human 5-HT1A receptor (Homo sapiens, UniProt P08908); test: Radioligand competition binding assay
T1 sequence (P08908 1-422): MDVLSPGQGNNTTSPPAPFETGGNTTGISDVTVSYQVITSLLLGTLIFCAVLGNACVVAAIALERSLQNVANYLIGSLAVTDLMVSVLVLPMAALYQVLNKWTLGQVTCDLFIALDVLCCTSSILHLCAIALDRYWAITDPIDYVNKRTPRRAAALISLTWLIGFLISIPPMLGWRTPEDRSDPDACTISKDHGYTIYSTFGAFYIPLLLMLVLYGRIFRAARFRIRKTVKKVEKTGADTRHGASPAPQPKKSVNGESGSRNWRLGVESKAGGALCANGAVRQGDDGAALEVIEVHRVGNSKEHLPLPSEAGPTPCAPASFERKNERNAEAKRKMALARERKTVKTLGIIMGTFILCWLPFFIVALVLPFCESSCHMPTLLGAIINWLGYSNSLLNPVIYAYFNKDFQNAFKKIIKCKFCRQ

[4] = system: 5-HT2A; conditions: cited from earlier work
[5] = system: dopamine receptors; conditions: cited from earlier work

SMILES	binding to 5-HT1B [1]	binding to 5-HT1D [2]	Ki [3]	binding with 5-HT2A [4]	binding with dopamine receptors [5]
CN1C[C@@H](CO)C=C2c3cccc4[nH]cc(c34)C[C@H]21 [ST057540, [(8α)-6-methyl-9,10-didehydroergolin-8-yl]methanol]	high-affinity binding	high-affinity binding	2.3 nM		
CC[C@@H](CO)NC(=O)[C@@H]1C=C2c3cccc4c3c(cn4C)C[C@H]2N(C)C1 [Methysergide]			26 nM		
CN1CCCCC1CCN1c2ccccc2Sc2ccc([S+](C)[O-])cc21 (stereo not shown) [Mesoridazine]			33.1 nM	potent binding	potent binding

From PMC3985444 (Journal of Chemical Information and Modeling, 2014)
